Experimental data reported in patent US10676509B2, “Surface-immobilized antimicrobial peptoids” (Northwestern University, priority 2008, dated 2020).
Non-standard residues stand in square brackets, D forms with d. Residues, ends and D or L forms follow the SMILES beside them. Dopa = N[C@@H](Cc1ccc(O)c(O)c1)C(=O)O; Nme = COCCNCC(=O)O

Key:
B. subtilis = format: cell-based, Bacillus subtilis (ATCC 6633); conditions: 16 h
Experimental: (§1) The polymers were initially tested to determine their antibacterial properties in the solution state. Antibacterial activities of the compounds were tested using the methods described above for both Gram-negative and Gram-positive bacterial strains.
(§2) The minimum inhibitory concentration (MIC) for each polymer was determined according to Clinical Laboratory Standards Institute (CLSI) broth microdilution protocols (M7-A6). The procedure explained previously was followed (Chongsiriwatana et al., supra); briefly, serial dilutions of the polymers were prepared in Mueller-Hinton broth (MHB) in 96-well microtiter plates and bacterial inoculum in MHB was added to each well (˜5.0×10^4 CFU/well). Optical density was monitored at 590 nm for 16 h at 35° C.

[1] = target: T1, fibrinogen from human plasma (Homo sapiens, UniProt P02671+P02675+P02679); assay: Short-term fibrinogen adsorption on modified TiO2 sensors using OWLS; conditions: Table 7, fibrinogen 3 mg/ml, 20 min, 37° C., mean ± SD
T1 construct: fibrinogen from human plasma was dissolved at 3 mg/ml concentrations in buffer B; purchased Aldrich (Milwaukee, Wis.); host or cells: human plasma
T1 sequence (P02671 20-644 isoform P02671-2 limits assumed): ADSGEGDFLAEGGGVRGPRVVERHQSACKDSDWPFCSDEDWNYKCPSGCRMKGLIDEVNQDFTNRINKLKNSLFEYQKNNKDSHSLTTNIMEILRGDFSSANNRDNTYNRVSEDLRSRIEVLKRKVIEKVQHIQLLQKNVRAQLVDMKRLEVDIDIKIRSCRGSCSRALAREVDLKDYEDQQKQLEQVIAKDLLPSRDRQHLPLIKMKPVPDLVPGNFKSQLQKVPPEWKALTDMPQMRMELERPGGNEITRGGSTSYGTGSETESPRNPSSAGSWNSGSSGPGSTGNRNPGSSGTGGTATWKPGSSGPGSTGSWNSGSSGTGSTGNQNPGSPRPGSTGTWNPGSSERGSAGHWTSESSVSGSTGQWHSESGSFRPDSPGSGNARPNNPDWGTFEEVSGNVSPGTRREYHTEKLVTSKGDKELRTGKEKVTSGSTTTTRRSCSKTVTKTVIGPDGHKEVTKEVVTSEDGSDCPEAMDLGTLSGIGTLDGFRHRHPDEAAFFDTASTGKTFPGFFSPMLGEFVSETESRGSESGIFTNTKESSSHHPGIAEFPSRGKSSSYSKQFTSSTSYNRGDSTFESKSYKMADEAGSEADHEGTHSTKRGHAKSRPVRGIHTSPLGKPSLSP
T1 sequence (P02675 31-491): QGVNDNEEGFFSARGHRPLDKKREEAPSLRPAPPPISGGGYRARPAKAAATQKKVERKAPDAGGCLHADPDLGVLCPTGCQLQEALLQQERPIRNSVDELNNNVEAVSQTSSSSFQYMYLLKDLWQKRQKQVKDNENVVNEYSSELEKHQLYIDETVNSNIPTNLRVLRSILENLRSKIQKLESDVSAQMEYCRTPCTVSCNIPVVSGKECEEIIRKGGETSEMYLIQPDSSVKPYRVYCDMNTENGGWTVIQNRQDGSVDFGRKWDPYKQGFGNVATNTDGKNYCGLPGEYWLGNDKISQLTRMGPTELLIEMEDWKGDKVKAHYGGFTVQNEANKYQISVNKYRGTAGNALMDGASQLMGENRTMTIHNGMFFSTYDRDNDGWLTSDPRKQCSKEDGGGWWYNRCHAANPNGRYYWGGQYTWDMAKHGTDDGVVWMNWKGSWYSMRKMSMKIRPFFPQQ
T1 sequence (P02679 27-437 isoform P02679-2 limits assumed): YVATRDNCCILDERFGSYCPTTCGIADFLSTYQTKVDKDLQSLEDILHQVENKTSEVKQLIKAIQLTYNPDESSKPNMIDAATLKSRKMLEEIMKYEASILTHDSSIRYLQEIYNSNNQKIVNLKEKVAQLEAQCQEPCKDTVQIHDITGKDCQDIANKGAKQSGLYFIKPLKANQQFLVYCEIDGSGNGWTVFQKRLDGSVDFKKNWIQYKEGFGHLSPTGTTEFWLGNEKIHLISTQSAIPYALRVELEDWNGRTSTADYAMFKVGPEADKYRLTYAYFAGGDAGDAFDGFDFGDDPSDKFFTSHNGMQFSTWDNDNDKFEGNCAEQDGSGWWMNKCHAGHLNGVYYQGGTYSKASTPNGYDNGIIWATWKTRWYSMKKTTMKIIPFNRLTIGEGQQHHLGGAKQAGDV
Experimental: Lyophilized human serum was reconstituted in water to reach the typical concentration in blood; fibrinogen from human plasma was dissolved at 3 mg/ml concentrations in buffer B (10 mM HEPES, 150 mM NaCl, pH=7.4). For in situ protein-adsorption experiments, TiO2 coated waveguide sensors were modified with peptidomimetic polymers as explained previously. After equilibration of the OWLS baseline in buffer B, protein solution was injected and allowed to adsorb for 20 min at 37° C. before rinsing with buffer B. A refractive index value of 1.331 27 was used for buffer B, and a standard value of 0.182 cm^3/g was used for dn/dc in the protein-adsorption calculations.

E. coli = format: cell-based, Escherichia coli (ATCC 35218); conditions: 16 h
Experimental: as §1, §2

P. aeruginosa = format: cell-based, Pseudomonas aeruginosa (ATCC 700829); conditions: 16 h
Experimental: as §1, §2

S. epidermidis = format: cell-based, Staphylococcus epidermidis RP62A (ATCC 12228); conditions: 16 h
Experimental: as §1, §2

SMILES: COCCN(CC(=O)N(CCOC)CC(=O)N(CCOC)CC(=O)N(CCOC)CC(=O)N(CCOC)CC(=O)N(CCOC)CC(=O)N(CCOC)CC(=O)N(CCOC)CC(=O)N(CCOC)CC(=O)N(CCOC)CC(=O)N(CCOC)CC(=O)N(CCOC)CC(=O)N(CCOC)CC(=O)N(CCOC)CC(=O)N(CCOC)CC(=O)N(CCOC)CC(=O)N(CCOC)CC(=O)N(CCOC)CC(=O)N(CCOC)CC(=O)N(CCOC)CC(=O)N[C@@H](Cc1ccc(O)c(O)c1)C(=O)N[C@@H](CCCCN)C(=O)N[C@@H](Cc1ccc(O)c(O)c1)C(=O)N[C@@H](CCCCN)C(=O)N[C@@H](Cc1ccc(O)c(O)c1)C(N)=O)C(C)=O [PMP1, (Nme)20-(DOPA-Lys)2-DOPA] (Ac-[Nme][Nme][Nme][Nme][Nme][Nme][Nme][Nme][Nme][Nme][Nme][Nme][Nme][Nme][Nme][Nme][Nme][Nme][Nme][Nme][Dopa]K[Dopa]K[Dopa]-NH2; N-terminus and C-terminus assumed)
- MIC B. subtilis (B. subtilis): >100 µM
- Adsorbed mass Fibrinogen [1]: 7 ± 3 ng/cm^2
- MIC E. coli (E. coli): >100 µM
- MIC P. aeruginosa (P. aeruginosa): >100 µM
- MIC S. epidermidis (S. epidermidis): >100 µM
